Laboratory results taken from PubChem BioAssay AID1918934 (Molecular Pharmacology Branch, DTP, NCI, 2023).

Test system: 292921-168-R-J2-PDC complex spheroid viability
Assay: Anticancer human tumor 292921-168-R-J2-PDC patient-derived pancreatic carcinoma cell line growth inhibition
Conditions: for IC50: curve of first compound; for viability, T/C: stronger effect = lower value; active = viability on the fitted dose curve at most 10% of control; inactive = the rest
Source text: Multicellular complex tumor spheroid response to LSD1 Inhibitor Iadademstat in combination with a variety of drugs and investigational agents in selected tumor cell lines
The current study was undertaken to assess response to LSD1 inhibitors in combination with standard-of-care drugs and investigational agents in solid tumor complex spheroid models as well as in the K-562 leukemia. Complex spheroids include a stromal component modeled by human endothelial cells (HUVEC) and fibroblasts modeled by human mesenchymal stem cells (MSCs). The concentration ranges selected for each drug and investigational agent were based upon clinically achievable concentrations if the clinical Cmax of the agent was known.
Compounds. The drugs and investigational agents used in this study are listed on Table 1. All of the agents used, including staurosporine (NSC755774) and gemcitabine (NSC613327), were obtained from the Developmental Therapeutics Program, NCI. FDA-approved anticancer drugs are available from the NCI at http://dtp.nci.nih.gov/branches/dscb/oncology_drugset_explanation.html. Drugs and investigational agents were >95% pure by proton nuclear magnetic resonance (NMR) and liquid chromatography/mass spectrometry (LC/MS). Stock solutions were prepared at 400x in DMSO, stored at -70 degrees C, and diluted in fresh medium prior to their use. The final concentration of DMSO in cell culture wells never exceeded 0.25% (v/v). The FDA-approved anticancer drug set is available from the Developmental Therapeutics Program at https://dtp.cancer.gov/organization/dscb/obtaining/available_plates.htm. All drugs and investigational agents were tested over a range starting from a high concentration at or near the clinical Cmax and decreasing in half-log increments. If the clinical Cmax for an agent had not been determined, the highest concentration tested was 10 microM.
Cell Lines. The patient-derived cancer cell (PDC) lines: 292921-168-R-J2-PDC, K24384-001-R-PDC, and 521955-158-R2-J5-PDC pancreatic carcinomas, 556581-035-R-J1 ovarian carcinoma, 324938-238-R-J1-PDC, 855422-203-R-J1-PDC and 883617-216-R-J1-PDC urothelial bladder carcinomas, 743489-274-T-PDC renal cell carcinoma, 138582-R-J1 Merkel cell tumor, K60290-347-R-J1 and K57222-313-R-J1-PDC glioblastomas, 653999-131-R-J2-PDC, LG0703-F948-PDC, and 349418-098-R-PDC non-small cell lung carcinomas, 885512-296-R-J2-PDC, 171881-019-R-J1-PDC breast carcinomas and 186277-243-T-J2-PDC and 233499-124-R-J2-PDC colon carcinomas were obtained from the NCI Patient-Derived Models Repository (PDMR, https://pdmr.cancer.gov). The established cell lines NCI/ADR-RES (RRID:CVCL_14520 and OVCAR-5 (RRID:CVCL_1628) ovarian carcinomas, 786-O (RRID:CVCL_1051) and A498 (RRID:CVCL_A498) renal cell carcinoma, NCI-H211 (ATCC, cat. CRL-5824; RRID:CVCL_1529), NCI-H196 (ATCC, cat. CRL-5823, RRID:CVCL_1509), SW 1271 (ATCC, cat. CRL-2177, RRID:CVCL_1716) and NCI-H1876 (ATCC, cat. CRL-5902, RRID:CVCL_1503) small cell lung carcinomas, MDA-MB-231 (RRID:CVCL_0062) and MDA-MB-468 (RRID:CVCL_0419)breast carcinomas (10-12). Pooled donor human umbilical vein endothelial cells (HUVEC, Lonza, cat. CC-2519) and human mesenchymal stem cells (hMSC, Lonza, cat. PT-2501) were purchased from Lonza (Walkersville, MD).
Cell Culture. All cells were maintained in an incubator at 37 degrees C and 5% CO2 with 95% humidity. The PDC lines were cultured according to standard operating procedures established by the NCI PDMR (https://pdmr.cancer.gov). Briefly all PDCs were thawed and cultured in Matrigel-coated flasks prepared with a working solution of 1X Ham's F-12 nutrient mix, without supplementation (Invitrogen, Waltham, MA, cat. 11765054), 100 U/mL penicillin-streptomycin (Invitrogen, cat. 15140122), and 2.5% Matrigel (Corning Inc., Corning, NY, cat. 354248) for the first three passages. […]

[1] = second compound 0.1 µM, first compound 0.000949 µM
[2] = second compound 0.1 µM, first compound 0.003 µM
[3] = second compound 0.1 µM, first compound 0.00949 µM
[4] = second compound 0.1 µM, first compound 0.03 µM
[5] = second compound 0.1 µM, first compound 0.0949 µM
[6] = second compound 0.1 µM, first compound 0.3 µM
[7] = second compound 0.316 µM, first compound 0.000949 µM
[8] = second compound 0.316 µM, first compound 0.003 µM
[9] = second compound 0.316 µM, first compound 0.00949 µM
[10] = second compound 0.316 µM, first compound 0.03 µM
[11] = second compound 0.316 µM, first compound 0.0949 µM
[12] = second compound 0.316 µM, first compound 0.3 µM
[13] = second compound 1 µM, first compound 0.000949 µM
[14] = second compound 1 µM, first compound 0.003 µM
[15] = second compound 1 µM, first compound 0.00949 µM
[16] = second compound 1 µM, first compound 0.03 µM
[17] = second compound 1 µM, first compound 0.0949 µM
[18] = second compound 1 µM, first compound 0.3 µM
[19] = second compound 3.16 µM, first compound 0.000949 µM
[20] = second compound 3.16 µM, first compound 0.003 µM
[21] = second compound 3.16 µM, first compound 0.00949 µM
[22] = second compound 3.16 µM, first compound 0.03 µM
[23] = second compound 3.16 µM, first compound 0.0949 µM
[24] = second compound 3.16 µM, first compound 0.3 µM
[25] = second compound 10 µM, first compound 0.000949 µM
[26] = second compound 10 µM, first compound 0.003 µM
[27] = second compound 10 µM, first compound 0.00949 µM
[28] = second compound 10 µM, first compound 0.03 µM
[29] = second compound 10 µM, first compound 0.0949 µM
[30] = second compound 10 µM, first compound 0.3 µM
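Also: seven day compound exposure before luminescent viability read.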

CCc1c2c(nc3ccc(O)cc13)-c1cc3c(c(=O)n1C2)COC(=O)[C@]3(O)CC + NC1CC1c1ccc(-c2cccc(O)c2)cc1
< 0.949 nM: IC50 (second compound 0.1 µM) | IC50 (second compound 0.316 µM) | IC50 (second compound 1 µM) | IC50 (second compound 3.16 µM) | IC50 (second compound 10 µM)
active: viability, T/C [1] 4.87% | viability, T/C [2] 2.64% | viability, T/C [3] 1.33% | viability, T/C [4] 1.09% | viability, T/C [5] 0.85% | viability, T/C [6] 1.26% | viability, T/C [7] 4.37% | viability, T/C [8] 2.24% | viability, T/C [9] 1.21% | viability, T/C [10] 0.88% | viability, T/C [11] 1.1% | viability, T/C [12] 1.26% | viability, T/C [13] 4.54% | viability, T/C [14] 2.69% | viability, T/C [15] 1.23% | viability, T/C [16] 1.12% | viability, T/C [17] 1.21% | viability, T/C [18] 1.22% | viability, T/C [19] 4.42% | viability, T/C [20] 2.55% | viability, T/C [21] 1.18% | viability, T/C [22] 0.79% | viability, T/C [23] 1.06% | viability, T/C [24] 1.13% | viability, T/C [25] 5.79% | viability, T/C [26] 3.19% | viability, T/C [27] 1.1% | viability, T/C [28] 1.82% | viability, T/C [29] 2.43% | viability, T/C [30] 1.15%

Nc1ccn(C2OC(CO)C(O)C2(F)F)c(=O)n1 (stereo not given) + NC1CC1c1ccc(-c2cccc(O)c2)cc1
< 0.949 nM: IC50 (second compound 0.1 µM) | IC50 (second compound 0.316 µM) | IC50 (second compound 1 µM) | IC50 (second compound 3.16 µM) | IC50 (second compound 10 µM)
inactive: viability, T/C [1] 29.5% | viability, T/C [2] 10.6% | viability, T/C [7] 30.2% | viability, T/C [13] 27% | viability, T/C [19] 27.8% | viability, T/C [25] 28.4% | viability, T/C [26] 11.2%
active: viability, T/C [3] 6.54% | viability, T/C [4] 5.59% | viability, T/C [5] 7.33% | viability, T/C [6] 5.81% | viability, T/C [8] 9.61% | viability, T/C [9] 4.8% | viability, T/C [10] 5.72% | viability, T/C [11] 5.73% | viability, T/C [12] 5.51% | viability, T/C [14] 8.35% | viability, T/C [15] 5.25% | viability, T/C [16] 5.86% | viability, T/C [17] 5.98% | viability, T/C [18] 6.01% | viability, T/C [20] 10% | viability, T/C [21] 5.33% | viability, T/C [22] 6.76% | viability, T/C [23] 5.59% | viability, T/C [24] 6.51% | viability, T/C [27] 7.89% | viability, T/C [28] 7.46% | viability, T/C [29] 7.74% | viability, T/C [30] 7.58%

O=C(c1cc(Cc2n[nH]c(=O)c3ccccc23)ccc1F)N1CCN(C(=O)C2CC2)CC1 + NC1CC1c1ccc(-c2cccc(O)c2)cc1
inactive: viability, T/C (second compound 0.1 µM, first compound 0.0316 µM) 89.5% | viability, T/C (second compound 0.1 µM, first compound 0.1 µM) 104% | viability, T/C (second compound 0.1 µM, first compound 0.316 µM) 78.8% | viability, T/C (second compound 0.1 µM, first compound 1 µM) 74.3% | viability, T/C (second compound 0.1 µM, first compound 3.16 µM) 58.1% | viability, T/C (second compound 0.1 µM, first compound 10 µM) 33.1% | viability, T/C (second compound 0.316 µM, first compound 0.0316 µM) 75% | viability, T/C (second compound 0.316 µM, first compound 0.1 µM) 67.8% | viability, T/C (second compound 0.316 µM, first compound 0.316 µM) 67% | viability, T/C (second compound 0.316 µM, first compound 1 µM) 68.9% | viability, T/C (second compound 0.316 µM, first compound 3.16 µM) 46.6% | viability, T/C (second compound 0.316 µM, first compound 10 µM) 31.2% | viability, T/C (second compound 1 µM, first compound 0.0316 µM) 60.1% | viability, T/C (second compound 1 µM, first compound 0.1 µM) 69.2% | viability, T/C (second compound 1 µM, first compound 0.316 µM) 64.5% | viability, T/C (second compound 1 µM, first compound 1 µM) 64.5% | viability, T/C (second compound 1 µM, first compound 3.16 µM) 43.1% | viability, T/C (second compound 1 µM, first compound 10 µM) 32.3% | viability, T/C (second compound 3.16 µM, first compound 0.0316 µM) 64.5% | viability, T/C (second compound 3.16 µM, first compound 0.1 µM) 60.1% | viability, T/C (second compound 3.16 µM, first compound 0.316 µM) 63% | viability, T/C (second compound 3.16 µM, first compound 1 µM) 54.1% | viability, T/C (second compound 3.16 µM, first compound 3.16 µM) 39% | viability, T/C (second compound 3.16 µM, first compound 10 µM) 32.8% | viability, T/C (second compound 10 µM, first compound 0.0316 µM) 61.3% | viability, T/C (second compound 10 µM, first compound 0.1 µM) 51.2% | viability, T/C (second compound 10 µM, first compound 0.316 µM) 53.6% | viability, T/C (second compound 10 µM, first compound 1 µM) 42.2% | viability, T/C (second compound 10 µM, first compound 3.16 µM) 34% | viability, T/C (second compound 10 µM, first compound 10 µM) 29.6%
4420 nM: IC50 (second compound 0.1 µM)
2180 nM: IC50 (second compound 1 µM)
2650 nM: IC50 (second compound 0.316 µM)
278 nM: IC50 (second compound 10 µM)
1390 nM: IC50 (second compound 3.16 µM)
